Experimental data taken from US20020187514A1 (priority 1999, published 2002).
Counter-ions that a name gives are not always drawn.

Tests used:
[1] = molecular target: Adenosine Transport (cs + es); test: Adenosine Transport (cs + es) (Human); [3H]-Adenosine; assay type: biochemical; conditions: reference compound, QA/QC; read-out: Ref Kj
[2] = molecular target: Glutamate, NMDA Agonist Site; test: Glutamate, NMDA Agonist Site; [3H]CGP 39653; assay type: binding; conditions: reference compound, QA/QC; read-out: Ref Kj
[3] = molecular target: Oxytocin; assay type: binding; conditions: read-out: Ref Kj
[4] = molecular target: T1, Thromboxane A2 (Homo sapiens, UniProt P21731); test: Thromboxane A2 (Human); [3H]SQ 29,548; assay type: binding; conditions: reference compound, QA/QC; read-out: Ref Kj
T1 construct: from human cell lines; endogenous in cells
T1 sequence (P21731 whole entry): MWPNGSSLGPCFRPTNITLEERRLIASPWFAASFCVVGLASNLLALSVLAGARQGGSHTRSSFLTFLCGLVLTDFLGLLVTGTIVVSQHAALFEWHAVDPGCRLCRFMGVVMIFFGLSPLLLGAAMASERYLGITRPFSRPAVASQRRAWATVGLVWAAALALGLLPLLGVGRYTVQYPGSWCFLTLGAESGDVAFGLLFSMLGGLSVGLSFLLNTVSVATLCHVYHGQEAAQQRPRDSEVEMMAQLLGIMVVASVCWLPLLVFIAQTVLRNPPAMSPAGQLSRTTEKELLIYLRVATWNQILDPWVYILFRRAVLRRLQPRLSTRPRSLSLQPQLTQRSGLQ

[5] = molecular target: T2, Sigma 1 (Cavia porcellus, UniProt Q60492); test: Sigma 1; [3H]-(+)-Pentazocine; assay type: binding, guinea pig; conditions: reference compound, QA/QC; read-out: Ref Kj
T2 construct: Fresh guinea pig whole brain was obtained following decapitation; from tissue; host or cells: guinea pig whole brain membranes
T2 sequence (Q60492 whole entry): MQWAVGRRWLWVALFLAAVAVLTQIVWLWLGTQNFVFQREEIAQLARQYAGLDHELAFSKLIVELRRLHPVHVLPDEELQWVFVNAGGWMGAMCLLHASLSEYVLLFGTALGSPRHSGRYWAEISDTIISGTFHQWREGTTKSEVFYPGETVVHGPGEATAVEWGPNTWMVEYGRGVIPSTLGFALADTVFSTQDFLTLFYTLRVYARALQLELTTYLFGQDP

[6] = molecular target: T3, Monoamine Oxidase A, Peripheral (Rattus norvegicus, UniProt P21396); test: biochemical; conditions: reference compound, QA/QC; read-out: Ref Kj
T3 construct: no other source notation after assay name denotes animal cell or animal tissue source; from tissue
T3 sequence (P21396 whole entry, looked up): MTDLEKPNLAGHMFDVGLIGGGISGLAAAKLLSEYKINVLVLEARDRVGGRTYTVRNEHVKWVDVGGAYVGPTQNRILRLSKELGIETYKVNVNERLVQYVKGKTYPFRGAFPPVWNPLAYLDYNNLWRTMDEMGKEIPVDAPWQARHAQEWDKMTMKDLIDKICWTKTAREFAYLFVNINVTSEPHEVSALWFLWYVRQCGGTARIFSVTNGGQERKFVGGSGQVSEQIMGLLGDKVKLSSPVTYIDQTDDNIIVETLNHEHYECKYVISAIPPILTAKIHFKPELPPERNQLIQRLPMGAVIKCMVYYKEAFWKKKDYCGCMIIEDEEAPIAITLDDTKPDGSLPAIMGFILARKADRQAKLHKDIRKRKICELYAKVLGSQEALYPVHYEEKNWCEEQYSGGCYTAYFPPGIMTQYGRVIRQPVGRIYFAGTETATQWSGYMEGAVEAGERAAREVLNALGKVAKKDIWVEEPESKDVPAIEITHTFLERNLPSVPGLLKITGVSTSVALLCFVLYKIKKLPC

[7] = molecular target: Somatostatin, Non-selective; test: Somatostatin, Non-selective; [125]-Somatostatin-14 (Tyr11); assay type: binding; conditions: reference compound, QA/QC; read-out: Ref Kj
[8] = molecular target: T4, Elastase (Homo sapiens, UniProt P08246); test: Elastase (Human); substrate MeO-Suc-Ala-Ala-Pro-Val-pNA; assay type: biochemical; conditions: reference compound, QA/QC; read-out: Ref Kj
T4 construct: from human cell lines; endogenous in cells
T4 sequence (P08246 30-267): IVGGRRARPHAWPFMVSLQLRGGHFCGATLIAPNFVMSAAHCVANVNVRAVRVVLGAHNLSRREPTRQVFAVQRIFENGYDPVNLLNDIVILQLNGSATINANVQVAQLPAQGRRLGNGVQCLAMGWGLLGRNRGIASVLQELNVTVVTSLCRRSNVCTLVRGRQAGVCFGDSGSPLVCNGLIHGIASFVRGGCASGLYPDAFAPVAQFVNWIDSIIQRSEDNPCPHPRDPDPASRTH

[9] = molecular target: Serotonin, 5HT3 (Mus musculus, UniProt P23979); test: biochemical; assay type: binding; conditions: radioligand, assay parameter; read-out: KD of the 5HT3 receptor for the radioligand
Sequence of Serotonin, 5HT3 (P23979 24-489): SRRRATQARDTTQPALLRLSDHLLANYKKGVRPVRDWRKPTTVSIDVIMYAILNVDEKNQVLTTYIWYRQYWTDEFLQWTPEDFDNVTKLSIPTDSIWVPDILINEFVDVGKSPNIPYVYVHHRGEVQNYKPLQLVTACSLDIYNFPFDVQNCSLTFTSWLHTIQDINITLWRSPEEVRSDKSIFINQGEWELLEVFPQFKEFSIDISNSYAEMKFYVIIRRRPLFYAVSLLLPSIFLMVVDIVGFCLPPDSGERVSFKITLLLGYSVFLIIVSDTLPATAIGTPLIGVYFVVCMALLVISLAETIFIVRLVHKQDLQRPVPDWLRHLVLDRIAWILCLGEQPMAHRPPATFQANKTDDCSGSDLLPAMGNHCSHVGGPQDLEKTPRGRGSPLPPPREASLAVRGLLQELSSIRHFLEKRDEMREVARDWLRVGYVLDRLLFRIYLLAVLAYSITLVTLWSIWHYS

[10] = molecular target: Dopamine Transporter (Cavia porcellus, UniProt H0WCX4); test: biochemical; assay type: binding, Guinea Pig; conditions: read-out: Kd for the receptor
Sequence of Dopamine Transporter (H0WCX4 1-619): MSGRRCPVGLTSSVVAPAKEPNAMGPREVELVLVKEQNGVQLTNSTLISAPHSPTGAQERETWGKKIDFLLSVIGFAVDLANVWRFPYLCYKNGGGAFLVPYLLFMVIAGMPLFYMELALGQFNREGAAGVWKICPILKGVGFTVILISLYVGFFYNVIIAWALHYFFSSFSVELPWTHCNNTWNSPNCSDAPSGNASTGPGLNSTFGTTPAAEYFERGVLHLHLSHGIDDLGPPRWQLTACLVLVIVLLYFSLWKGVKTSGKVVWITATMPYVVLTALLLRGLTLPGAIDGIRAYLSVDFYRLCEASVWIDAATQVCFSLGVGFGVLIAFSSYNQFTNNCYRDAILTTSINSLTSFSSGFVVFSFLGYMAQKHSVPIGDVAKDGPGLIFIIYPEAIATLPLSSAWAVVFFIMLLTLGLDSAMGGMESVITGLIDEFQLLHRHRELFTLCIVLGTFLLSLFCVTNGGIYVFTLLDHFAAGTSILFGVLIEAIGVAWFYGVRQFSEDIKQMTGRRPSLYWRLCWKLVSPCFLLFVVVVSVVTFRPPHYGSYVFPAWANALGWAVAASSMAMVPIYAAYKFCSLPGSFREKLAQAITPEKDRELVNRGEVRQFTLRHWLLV

[11] = molecular target: Choline Acetyltransferase; test: Choline Acetyltransferase; substrate [14C]Acetyl Coenzyme; assay type: biochemical; conditions: reference compound, QA/QC; read-out: Ref Kj
[12] = molecular target: Thyrotropin Releasing Hormone, TRH; test: Thyrotropin Releasing Hormone, TRH; [3H]-(3MeHis2)TRH; assay type: binding; conditions: reference compound, QA/QC; read-out: Ref Kj
[13] = molecular target: Glutamate, MK-801 Site; test: Glutamate, MK-801 Site; [3H]MK-801; assay type: binding; conditions: reference compound, QA/QC; read-out: Ref Kj
[14] = molecular target: Glutamate, NMDA, Phencyclidine Site; test: Glutamate, NMDA, Phencyclidine Site; [3H]TCP; assay type: binding; conditions: reference compound, QA/QC; read-out: Ref Kj
[15] = molecular target: Vasopressin, V1A (Homo sapiens, UniProt P37288); test: Vasopressin, V1A (Human); [125I]-Via Antagonist; assay type: binding; conditions: read-out: Ref Kj
Sequence of Vasopressin, V1A (P37288 whole entry): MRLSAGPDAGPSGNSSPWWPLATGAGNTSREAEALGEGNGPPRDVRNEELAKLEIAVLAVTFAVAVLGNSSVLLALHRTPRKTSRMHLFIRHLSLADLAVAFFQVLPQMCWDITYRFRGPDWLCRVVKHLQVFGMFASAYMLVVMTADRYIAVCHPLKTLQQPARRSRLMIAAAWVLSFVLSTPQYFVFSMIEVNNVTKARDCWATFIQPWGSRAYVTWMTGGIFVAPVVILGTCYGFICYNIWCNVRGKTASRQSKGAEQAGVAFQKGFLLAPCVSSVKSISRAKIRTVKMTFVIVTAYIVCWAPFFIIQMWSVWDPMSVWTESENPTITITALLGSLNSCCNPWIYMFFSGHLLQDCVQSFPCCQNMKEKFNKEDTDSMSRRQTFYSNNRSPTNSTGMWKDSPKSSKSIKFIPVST

[16] = molecular target: Protein Phosphatase, PP2B (Calcineurin); test: Protein Phosphatase, PP2B (Calcineurin); substrate pNPP; assay type: biochemical; conditions: read-out: Ref Kj
[17] = molecular target: Protein Tyrosine Phosphatase, PTP-B; test: Protein Tyrosine Phosphatase, PTP-B (Human); substrate pNPP; assay type: biochemical; conditions: read-out: Ref Kj
[18] = molecular target: Protein Tyrosine Phosphatase, PTP-CD45 (Homo sapiens, UniProt P08575); test: Protein Tyrosine Phosphatase, PTP-CD45 (Human); substrate pNPP; assay type: biochemical; conditions: read-out: Ref Kj
Sequence of Protein Tyrosine Phosphatase, PTP-CD45 (P08575 26-1306): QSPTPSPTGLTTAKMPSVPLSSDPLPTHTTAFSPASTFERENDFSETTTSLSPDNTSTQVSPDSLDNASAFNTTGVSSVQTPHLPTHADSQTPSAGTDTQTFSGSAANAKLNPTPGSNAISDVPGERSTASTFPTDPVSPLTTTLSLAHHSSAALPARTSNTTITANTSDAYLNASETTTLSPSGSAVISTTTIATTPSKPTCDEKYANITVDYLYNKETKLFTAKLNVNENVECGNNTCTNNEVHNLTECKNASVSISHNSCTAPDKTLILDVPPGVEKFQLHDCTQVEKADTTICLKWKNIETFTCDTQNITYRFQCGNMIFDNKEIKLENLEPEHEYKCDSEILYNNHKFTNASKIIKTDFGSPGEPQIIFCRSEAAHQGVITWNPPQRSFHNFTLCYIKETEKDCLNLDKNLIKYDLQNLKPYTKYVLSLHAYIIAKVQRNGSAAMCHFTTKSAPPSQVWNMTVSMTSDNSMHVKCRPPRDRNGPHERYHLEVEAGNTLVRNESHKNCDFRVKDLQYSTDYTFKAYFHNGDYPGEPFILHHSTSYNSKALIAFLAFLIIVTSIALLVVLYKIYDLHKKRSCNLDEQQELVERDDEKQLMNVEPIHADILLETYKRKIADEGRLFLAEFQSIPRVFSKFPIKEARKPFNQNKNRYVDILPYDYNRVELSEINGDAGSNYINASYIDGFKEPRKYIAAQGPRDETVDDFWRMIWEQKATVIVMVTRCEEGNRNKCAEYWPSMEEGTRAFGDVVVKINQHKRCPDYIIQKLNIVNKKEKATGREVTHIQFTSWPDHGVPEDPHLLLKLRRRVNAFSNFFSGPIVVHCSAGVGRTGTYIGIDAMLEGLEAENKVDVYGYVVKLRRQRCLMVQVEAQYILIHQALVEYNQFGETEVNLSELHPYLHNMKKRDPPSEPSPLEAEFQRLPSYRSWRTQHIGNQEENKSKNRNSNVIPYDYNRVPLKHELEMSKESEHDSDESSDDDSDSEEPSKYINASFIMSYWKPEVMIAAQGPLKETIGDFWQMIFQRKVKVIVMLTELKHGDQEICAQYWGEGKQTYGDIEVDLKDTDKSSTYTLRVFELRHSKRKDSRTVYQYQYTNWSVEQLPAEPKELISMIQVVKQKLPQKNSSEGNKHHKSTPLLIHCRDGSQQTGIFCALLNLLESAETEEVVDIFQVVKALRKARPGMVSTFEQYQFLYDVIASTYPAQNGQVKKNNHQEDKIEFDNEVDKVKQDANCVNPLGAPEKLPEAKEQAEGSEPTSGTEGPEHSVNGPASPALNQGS

[19] = molecular target: T5, Protein Tyrosine Phosphatase, PTP-LAR-D1 (Homo sapiens, UniProt P10586); test: Protein Tyrosine Phosphatase, PTP-LAR-D1 (Human); substrate pNPP; assay type: biochemical; conditions: read-out: Ref Kj
T5 construct: PTP-LAR-D1
T5 sequence (P10586 1352-1607): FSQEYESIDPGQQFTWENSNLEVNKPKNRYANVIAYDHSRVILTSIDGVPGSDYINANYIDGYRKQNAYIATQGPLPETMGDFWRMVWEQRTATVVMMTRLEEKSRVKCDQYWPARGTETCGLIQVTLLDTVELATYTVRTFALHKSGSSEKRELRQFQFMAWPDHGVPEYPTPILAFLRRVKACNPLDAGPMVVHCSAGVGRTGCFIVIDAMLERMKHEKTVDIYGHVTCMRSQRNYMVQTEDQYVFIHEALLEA

[20] = system: Protein Tyrosine Phosphatase, PTP-Cell; test: Protein Tyrosine Phosphatase, PTP-Cell (Human); substrate pNPP; assay type: biochemical; conditions: read-out: Ref Kj
[21] = molecular target: Angiotensin II, AT2; assay type: binding; conditions: read-out: Ref Kj
[22] = molecular target: Cholecystokinin, CCK1 (CCKA); test: Cholecystokinin, CCK1 (CCKA); [125I]CCK-8; assay type: binding; conditions: read-out: Ref Kj
[23] = molecular target: Cholecystokinin, CCK2 (CCKB); test: Cholecystokinin, CCK2 (CCKB); [125I]CCK-8; assay type: binding; conditions: read-out: Ref Kj
[24] = molecular target: Protein Phosphatase, PP2A (Homo sapiens, UniProt P67775); test: Protein Phosphatase, PP2A (Human); substrate DiFMUP; assay type: biochemical; conditions: reference compound, QA/QC; read-out: Ref Kj
Sequence of Protein Phosphatase, PP2A (P67775 whole entry): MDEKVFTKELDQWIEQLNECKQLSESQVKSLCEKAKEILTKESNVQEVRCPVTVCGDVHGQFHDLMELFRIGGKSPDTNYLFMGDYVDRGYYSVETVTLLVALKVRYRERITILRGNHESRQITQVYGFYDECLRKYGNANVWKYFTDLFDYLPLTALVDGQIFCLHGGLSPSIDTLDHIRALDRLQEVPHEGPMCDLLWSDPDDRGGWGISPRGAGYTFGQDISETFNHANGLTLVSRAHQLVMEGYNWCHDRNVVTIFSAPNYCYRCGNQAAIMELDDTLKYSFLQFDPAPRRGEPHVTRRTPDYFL

[25] = molecular target: Potassium Channel, Ca2+ Act., VS; test: Potassium Channel, Ca2+ Act., VS; [125I]Charybdotoxin; assay type: binding; conditions: reference compound, QA/QC; read-out: Ref Kj
[26] = molecular target: Neurokinin, NK1; assay type: binding; conditions: read-out: Ref Kj
[27] = molecular target: Vasoactive Intestine Peptide, Non-selective; assay type: binding; conditions: read-out: Ref Kj
[28] = molecular target: Calcium Channel, Type N; assay type: binding; conditions: read-out: Ref Kj

O=[N+]([O-])c1ccc(CSc2ncnc3c2ncn3[C@@H]2O[C@H](CO)[C@@H](O)[C@H]2O)cc1 [NBTI]
Ki [1]: 0.331 nM

CN[C@H](CC(=O)O)C(=O)O [NMDA]
Ki [2]: 13100 nM

CCCCC[C@@H](O)/C=C/[C@H]1C[C@H]2C[C@@H]([C@@H]1C/C=C\CCCC(=O)O)C2(C)C [Pinane-thromboxane A2]
Ki [4]: 30.3 nM

CCCN1CCC[C@H](c2cccc(O)c2)C1 [R(+)-3-PPP HCl]
Ki [5]: 1.27 nM

NCCNC(=O)c1ncsc1-c1cccc(F)c1 [Ro 41-1049 HCl]
Ki [6]: 1.08 nM

C[C@H](N)C(=O)NCC(=O)N[C@H]1CSSC[C@@H](C(=O)O)NC(=O)[C@H](CO)NC(=O)[C@H]([C@@H](C)O)NC(=O)[C@H](Cc2ccccc2)NC(=O)[C@H]([C@@H](C)O)NC(=O)[C@H](CCCCN)NC(=O)[C@H](Cc2c[nH]c3ccccc23)NC(=O)[C@H](Cc2ccccc2)NC(=O)[C@H](Cc2ccccc2)NC(=O)[C@H](CC(N)=O)NC(=O)[C@H](CCCCN)NC1=O [Somatostatin]
Ki [7]: 0.768 nM

C[C@H]1[C@H](C)CC[C@]2(C(=O)O)CC[C@]3(C)C(=CC[C@@H]4[C@@]5(C)CC[C@H](O)C(C)(C)[C@@H]5CC[C@]43C)[C@H]12 [Ursolic Acid]
Ki [8]: 2320 nM

Cc1[nH]cnc1CCC(=O)c1cn(C)c2ccccc12 [[^3H]-GR65630]
Kd [9]: 0.35 nM

COC(=O)[C@H]1[C@@H](c2ccc(F)cc2)C[C@@H]2CC[C@H]1N2C [[^3H]-WIN 35-428]
Kd [10]: 28 nM

C[N+](C)(C)CCC(=O)c1ccc2ccccc2c1 [beta-NETA]
Ki [11]: 425 nM

(3MeHis2) TRH
Ki [12]: 175 nM

(+)-MK-801 HMaleate
Ki [13]: 2.33 nM
Ki [14]: 8.96 nM

(Phe)(Me)2A6,8,L9AVP
Ki [15]: 0.128 nM

Ammonium Molybdate
Ki [16]: 90500 nM
Ki [17]: 313 nM
Ki [18]: 30.9 nM
Ki [19]: 117 nM
Ki [20]: 41.3 nM

Angiotensin II (Human)
Ki [21]: 0.578 nM

CCK-8 (sulfated)
Ki [22]: 0.0228 nM
Ki [23]: 0.479 nM

Calyculin
Ki [24]: 0.722 nM

Charybdotoxin
Ki [25]: 0.204 nM

Substance P
Ki [26]: 13 nM

VIP
Ki [27]: 1.9 nM

w-Conotoxin GVIA
Ki [28]: 0.0124 nM
